Test [1] relates to Ramos cells. Briefly: Cell-death induction in Ramos cells (Annexin V/PI). Format: cell-based, human. The settings on record: positive control, 24 hrs, untreated cells approximately 30%. On the procedure:
Anti-CXCR4 antibodies were examined for the ability to induce cell-death in the human Non-Hodgkin's Lymphoma Ramos cell line. Cells were cultured to sub-confluency in RPMI 1640 media containing 10% fetal bovine serum and […] Glutamine at 37° C. in a CO2 incubator. Cells were seeded in growth media in a 48-well plates at 2.5×10^6 cells/mL. Anti-CXCR4 antibodies, diluted in PBS to concentrations indicated, were added to the cells and incubated for 24 hrs at 37° C. Cell-death was measured by Annexin V-PE and propidium iodide (PI) fluorescent signal measured in a LSRII Flow Cytometer (BD Biosciences). Total cell-death was determined by adding the Annexin V+/PI+(late) population with the Annexin V+/PI-(early) population.
The Fab is a single chain antibody (monovalent) and contains the immunoglobulin variable regions which are part of the antigen-binding site and the first immunoglogulin constant region. This fragment was obtained by digestion of the 3G10 antibody with the proteolytic enzyme papain. The F(ab′)2 was generated by pepsin digestion to remove most of the Fc region while leaving intact some of the hinge region. F(ab′)2 fragments have two antigen-binding Fab portions linked together by disulfide bonds, and therefore are bivalent.

In test [2] the test system is JVM-13-Luc cells. Briefly: Systemic JVM-13-Luc CLL model. Format: in vivo, mouse. To be noted: 10 mg/kg s.c. once a week. The method, then: Anti-tumor activity of CXCR4 antibody was further investigated in a disseminated intravenous Chronic Lymphocytic Leukemia (CLL) model. The human JVM-13 tumor cell line stably transfected to express the luciferase gene was cultured at 37° C. in a 5% CO2 incubator in RPMI 1640 media containing 10% fetal bovine serum and […] Puromycin. The model was established by injecting 1×10^6 JVM-13-Luc cells into female 6-8 week old SCID Beige mice via tail vein. 21 days post-cell implantation mice were assigned into treatment groups (10 animals per group) based on bioluminescence (BLI) reading. […] Rituximab, an anti-CD20 Ab, approved for treatment of CLL patients, was used as positive control. Rituximab was dosed at 10 mg/kg in a solution of sterile PBS once a week, s.c. Tumor burden was assessed using Xenogen IVIS 200 imaging system. Mice were imaged every 7 days in a ventral position and whole body bioluminescence was determined using Xenogen Living Image software. When mice began to show hind limb paralysis or reached other humane endpoints they were euthanized. Both tumor burden (by bioluminescence) and survival were evaluated as endpoints.

In the case of `CN[C@@H]1C[C@H]2O[C@@](C)([C@@H]1OC)n1c3ccccc3c3c4c(c5c6ccccc6n2c5c31)C(=O)NC4` [Staurosporin, reference compound], in test [1], the cell-death result is on record as “approximately 60%”.
As to “Rituximab: anti-CD20 Ab, approved for treatment of CLL patients, used as positive control [reference compound]”, the “tumor burden (luminescence) compared to isotype control antibody” value in test [2] (from 21 days post-implantation) is listed as “significantly reduced tumor burden”. Also, the median survival in test [2] (isotype control 32.5 days) turned out to be 45 days. For the same compound, in test [2] (p<0.0001), the “survival compared to isotype control Ab” value is “Significant increase in survival”.

Source of the values: patent publication US10927178B2, “Anti-CXCR4 antibodies and antibody-drug conjugates” (PFIZER INC., priority 2013, dated 2021).
